Experimental data: patent US10994006B2, “Desensitizing mast cells by co-presentation of antigens with high affinity mast cell siglec ligands” (The Scripps Research Institute, priority 2016, dated 2021)
Entries after “also recorded” stand apart in the source; their conditions may differ.

Tests used:
hCD33 [1] = target: T1, hCD33 (Homo sapiens, UniProt P20138); experiment: solution-phase inhibition assay, flow cytometry: binding of fluorescently labelled hCD33 to ligand-coated beads
Experimental: Glycan microarrays may provide only qualitative measures of avidity and selectivity. Therefore, the relative affinities of these compounds were analyzed using solution-phase inhibition assays where IC50 values were determined using a flow cytometry assay. The flow cytometry assay evaluated whether the compounds were able to prevent the binding of fluorescently labelled hCD33 to ligand-coated beads, and these values were used to determine the relative inhibitory potency (rIP) for each compound compared to the native sialoside (rIP=1).
Target sequence in this assay (P20138 18-364): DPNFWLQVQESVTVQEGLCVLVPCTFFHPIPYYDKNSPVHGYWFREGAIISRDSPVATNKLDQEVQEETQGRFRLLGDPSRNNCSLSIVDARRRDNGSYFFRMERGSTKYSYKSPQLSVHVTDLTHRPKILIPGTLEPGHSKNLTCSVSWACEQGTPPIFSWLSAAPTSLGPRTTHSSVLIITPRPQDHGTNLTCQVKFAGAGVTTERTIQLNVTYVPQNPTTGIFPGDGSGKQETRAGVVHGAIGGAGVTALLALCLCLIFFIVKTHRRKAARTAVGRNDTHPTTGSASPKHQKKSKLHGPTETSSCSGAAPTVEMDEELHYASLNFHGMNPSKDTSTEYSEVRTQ

HL-60 cells = experiment: HL-60 cell binding to arrayed compound; parameters: species or system human; settings: AML cell line expressing intermediate levels of hCD33
Text: This increase in avidity was further supported by the fact that HL-60 cells, an AML cell line expressing intermediate levels of hCD33, bound to compound 22.

hCD33 [2] = target: T1, hCD33; experiment: glycan microarray binding of hCD33-Fc; parameters: made in house
Target sequence in this assay (P20138 18-259 limits assumed): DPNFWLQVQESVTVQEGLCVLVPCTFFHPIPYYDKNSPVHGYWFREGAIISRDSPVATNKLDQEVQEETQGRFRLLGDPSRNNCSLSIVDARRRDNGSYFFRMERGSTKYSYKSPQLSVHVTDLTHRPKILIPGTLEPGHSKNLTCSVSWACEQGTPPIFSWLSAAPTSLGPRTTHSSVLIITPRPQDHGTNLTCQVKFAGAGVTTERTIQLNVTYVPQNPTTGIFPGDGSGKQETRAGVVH

Siglec-8 = Siglec-8 (Homo sapiens, UniProt Q9NYZ4); settings: Bochner et al. 2005; Floyd et al. 2000; cited from earlier work
Siglec-8, sequence (Q9NYZ4 17-499): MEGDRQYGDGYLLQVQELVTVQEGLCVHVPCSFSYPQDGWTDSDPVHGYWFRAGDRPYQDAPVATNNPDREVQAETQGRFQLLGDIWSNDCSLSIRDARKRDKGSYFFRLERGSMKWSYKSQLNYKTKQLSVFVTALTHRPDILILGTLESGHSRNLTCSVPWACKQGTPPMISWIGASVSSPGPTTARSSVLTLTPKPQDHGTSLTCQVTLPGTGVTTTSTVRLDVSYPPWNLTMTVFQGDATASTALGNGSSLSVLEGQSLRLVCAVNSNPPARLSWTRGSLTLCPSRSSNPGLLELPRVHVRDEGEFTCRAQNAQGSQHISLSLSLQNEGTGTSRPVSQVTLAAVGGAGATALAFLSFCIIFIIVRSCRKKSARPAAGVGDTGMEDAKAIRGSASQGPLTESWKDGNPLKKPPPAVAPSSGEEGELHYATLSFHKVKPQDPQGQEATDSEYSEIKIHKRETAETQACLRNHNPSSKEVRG

Molecule | increase in affinity relative to the native sialoside (hCD33 [1]; hCD33) [fold] | IC50 (hCD33 [1]; prevention of binding of fluorescently labelled hCD33 to ligand-coated beads) [µM] | rIP value (hCD33 [1]; relative inhibitory potency compared to the native sialoside (rIP=1)) | binding of HL-60 cells to compound (HL-60 cells) | selectivity for hCD33 over hCD22 and mSn (hCD33 [2]; glycan microarray) | binding (affinity/avidity, selectivity) to hCD33 on glycan array (hCD33 [2]; printed at 100 μM or 3 μM, hCD33-Fc pre-complexed with R-PE anti-human IgG) | binding to Siglec-8 (Siglec-8)
Cc1cc(C(=O)NC[C@@H](O)[C@@H](O)C2O[C@@](OCC3O[C@@H](O[C@@H]4C(CO)O[C@@H](OCCN)C(O)[C@H]4O)C(O)[C@@H](O)[C@H]3O)(C(=O)O)C[C@@H](O)[C@H]2NC(=O)Cn2cc(C3CCCCC3)nn2)cc(C)c1O (stereo partly shown) [Compound 22] | 350 | 11 | 351 | bound | showed increased selectivity for hCD33 over hCD22 and mSn | exhibited superior properties compared to the monosubstituted compounds; also recorded: exhibited higher avidity than both parent compounds | 
Neu5Acα2-3[6-SO4]Galβ1-4[Fucα1-3]GlcNAc [6′-sulfo-sLe^X] |  |  |  |  |  |  | binds to
